According to patent publication US20140045746A1 (Merck Sharp & Dohme Corp., priority 2012, published 2014):
≈ marks a conversion by molar mass, not a printed value.

Tests used:
Solubility in PBS pH 7 = format: physicochemical; settings: aqueous buffer; pH 7, PBS
hGPR40 [1] = target: T1, hGPR40 (Homo sapiens, UniProt O14842); test: GPR40 Inositol Phosphate Turnover (IP1) Assay; format: cell-based; design: expressed in transfected cells; host or cells: HEK cells stably expressing the aequorin reporter
[2] = target: KV11.1 ion channel (hERG) (Homo sapiens, UniProt Q12809); test: Binding to ion channel Kv11.1 (hERG)
hGPR40 [3] = target: T1, hGPR40; test: GPR40 FLIPR assay (agonist-induced calcium mobilization); format: cell-based; design: expressed in transfected cells; host or cells: CHO cells stably expressing NFAT BLA (beta-lactamase); settings: GPR40/CHO NFAT BLA cells;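 also: calcium mobilization in the cells read as fluorescence of fluo-4 AM loaded cells on FLIPR after compound addition, cells preloaded with dye 100 min at room temperature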
Method: Human and mouse GPR40 stable cell-lines were generated in CHO cells stably expressing NFAT BLA (Beta-lactamase). […] The expression plasmids were transfected using lipofectamine (Life Technologies) following manufacturer's instructions. Stable cell-lines were generated following drug selection.
FLIPR (Fluorimetric Imaging Plate Reader, Molecular Devices) assays were performed to measure agonist-induced calcium mobilization of the stable clones. For the FLIPR assay, one day before assay, GPR40/CHO NFAT BLA cells were seeded into black-wall-clear-bottom 384-well plates (Costar) at 1.4×10e4 cells/20 μL medium/well. The cells were incubated with 20 μl/well of the assay buffer (HBSS, 0.1% BSA, 20 mM HEPES, 2.5 mM probenecid, pH 7.4) containing 8 μM fluo-4, AM, 0.08% pluronic acid at room temperature for 100 minutes. Fluorescence output was measured using FLIPR. Compounds were dissolved in DMSO and diluted to desired concentrations with assay buffer. 13.3 μL/well of compound solution was added.

[4] = +0% human serum (Table A), read-out: Human GPR40 IP1, EC50, +0% human serum
[5] = +100% human serum (Table A), read-out: Human GPR40 IP1, EC50, +100% human serum
[6] = HEK cells stably expressing human GPR40, 0% serum, read-out: hGPR40 IP1 EC50 (0% serum)

T1 sequence (O14842 whole entry): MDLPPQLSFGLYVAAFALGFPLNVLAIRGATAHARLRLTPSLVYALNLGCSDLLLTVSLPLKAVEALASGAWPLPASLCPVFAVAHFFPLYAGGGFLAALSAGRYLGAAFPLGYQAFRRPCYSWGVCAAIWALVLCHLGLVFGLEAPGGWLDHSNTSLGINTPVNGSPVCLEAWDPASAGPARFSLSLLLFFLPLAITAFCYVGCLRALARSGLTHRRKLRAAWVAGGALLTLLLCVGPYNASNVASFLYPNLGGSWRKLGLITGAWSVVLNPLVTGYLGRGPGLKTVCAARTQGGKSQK
KV11.1 ion channel (hERG), sequence (Q12809 whole entry): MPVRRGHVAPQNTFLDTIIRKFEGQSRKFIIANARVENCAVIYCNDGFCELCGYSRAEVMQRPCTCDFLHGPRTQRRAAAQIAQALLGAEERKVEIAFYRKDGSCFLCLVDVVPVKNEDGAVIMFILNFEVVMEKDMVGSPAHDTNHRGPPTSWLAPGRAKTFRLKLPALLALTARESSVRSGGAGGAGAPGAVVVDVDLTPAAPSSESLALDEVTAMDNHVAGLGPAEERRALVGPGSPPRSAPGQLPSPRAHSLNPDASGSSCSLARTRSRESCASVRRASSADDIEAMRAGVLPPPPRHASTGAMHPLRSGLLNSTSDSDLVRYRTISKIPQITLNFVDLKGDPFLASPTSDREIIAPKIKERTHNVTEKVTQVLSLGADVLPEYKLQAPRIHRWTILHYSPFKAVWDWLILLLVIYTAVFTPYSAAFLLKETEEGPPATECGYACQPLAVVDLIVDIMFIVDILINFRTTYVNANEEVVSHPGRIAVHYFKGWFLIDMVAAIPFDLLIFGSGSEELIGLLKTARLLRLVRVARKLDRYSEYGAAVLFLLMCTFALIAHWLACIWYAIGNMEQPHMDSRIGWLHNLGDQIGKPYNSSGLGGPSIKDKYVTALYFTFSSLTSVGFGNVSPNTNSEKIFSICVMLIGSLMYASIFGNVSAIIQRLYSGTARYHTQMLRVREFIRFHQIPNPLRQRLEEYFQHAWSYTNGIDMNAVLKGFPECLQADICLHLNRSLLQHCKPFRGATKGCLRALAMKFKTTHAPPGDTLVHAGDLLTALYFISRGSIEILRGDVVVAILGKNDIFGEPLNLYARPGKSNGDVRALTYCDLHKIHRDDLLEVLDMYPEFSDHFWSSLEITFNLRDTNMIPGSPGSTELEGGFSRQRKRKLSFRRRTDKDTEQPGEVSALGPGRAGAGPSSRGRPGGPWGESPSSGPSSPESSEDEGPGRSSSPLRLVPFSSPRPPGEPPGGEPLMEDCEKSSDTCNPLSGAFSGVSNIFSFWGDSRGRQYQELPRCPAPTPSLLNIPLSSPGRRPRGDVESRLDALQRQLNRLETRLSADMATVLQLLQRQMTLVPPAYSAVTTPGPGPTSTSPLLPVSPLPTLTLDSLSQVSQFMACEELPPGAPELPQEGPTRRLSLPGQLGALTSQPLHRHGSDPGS

| SMILES | solubility (Solubility in PBS pH 7) [µM] | EC50 (hGPR40 [1]; [4]) [nM] | EC50 (hGPR40 [1]; [5]) [nM] | EC50 (hGPR40 [3]) [nM] | EC50 (hGPR40 [1]; [6]) [nM] | Ki [2] [nM] |
| --- | --- | --- | --- | --- | --- | --- |
| Cc1cc(OCC2(C)COC2)cc(C)c1-c1cccc(COc2cc3c(cn2)[C@H]2[C@@H](C3)[C@@H]2C(=O)O)c1 (single isomer, unassigned) [Compound A-2] | 118 (≈ 57.3 µg/mL) | 18 | 199 |  |  |  |
| Cc1cc(OCC2(C)COC2)cc(C)c1-c1ccc(F)c(COc2cc3c(cn2)[C@H]2[C@@H](C3)[C@@H]2C(=O)O)c1 (single isomer, unassigned) [Compound A-3] | 107 (≈ 53.9 µg/mL) | 9 | 81 |  |  | 40200 |
| Cc1nc(OCC(F)(F)C(F)(F)F)ccc1-c1ccc(F)c(COc2cc3c(cn2)C2C(C3)C2C(=O)O)c1 (stereo not shown) [Compound 23-18, 3-((2-fluoro-5-(2-methyl-6-(2,2,3,3,3-pentafluoro-propoxy)pyridin-3-yl)-benzyl)oxy)-5,5a,6,6a-tetra-hydrocyclopropa[4,5] cyclopenta[1,2-c]pyridine-6-carboxylic acid] |  |  |  | 10 | 56 |  |
| Cc1nc(OCCCS(C)(=O)=O)ccc1-c1ccc(F)c(CNc2cc3c(cn2)C2C(C3)C2C(=O)O)c1 (stereo not shown) [Compound 24-4, 3-((2-fluoro-5-(2-methyl-6-(3-(methylsulfonyl)propoxy)pyridin-3-yl)benzyl)amino)-5,5a,6,6a-tetrahydrocyclopropa[4,5]cyclopenta[1,2-c]pyridine-6-carboxylic acid] |  |  |  | 96 | 90 |  |
| O=C(O)[C@H]1[C@@H]2Cc3cc(OCc4cc(Oc5ccccc5C(F)(F)F)ccc4F)ncc3[C@@H]21 [Compound 25-2, 4-[2-Fluoro-5-(2-trifluoromethyl-phenoxy)-benzyloxy]-1,1a,6,6a-tetrahydro-3-aza-cyclopropa[a]indene-1-carboxylic acid] |  |  |  | 35 | 56 |  |
| O=C(O)[C@H]1[C@@H]2Cc3cc(OCc4cc(Oc5ccccc5)ccc4F)ncc3[C@@H]21 [Compound 25-3, 4-(2-Fluoro-5-phenoxy-benzyloxy)-1,1a, 6,6a-tetrahydro-3-aza-cyclopropa [a]indene-1-carboxylic acid] |  |  |  | 34 | 85 |  |
| O=C(O)[C@H]1[C@@H]2Cc3cc(OCc4cc(Oc5ccc(C(F)(F)F)cc5Cl)ccc4F)ncc3[C@@H]21 [Compound 25-4, 4-[5-(2-Chloro-4-trifluoromethyl-phenoxy)-2-fluoro-benzyloxy]-1,1a, 6,6a-tetrahydro-3-aza-cyclopropa [a]indene-1-carboxylic acid] |  |  |  | 49 | 300 |  |
| Cc1cccc(C)c1-c1ccc(F)c(COc2cc3c(cn2)C2C(C3)C2C(=O)O)n1 (stereo not shown) [Compound 26-7, 3-((6-(2,6-dimethylphenyl)-3-fluoropyridin-2-yl)methoxy)-5,5a,6,6a-tetrahydrocyclopropa[4,5]cyclopenta[1,2-c]pyridine-6-carboxylic acid] |  |  |  | 42 | 120 |  |
| Cc1cccc(C)c1-c1cc(COc2cc3c(cn2)C2C(C3)C2C(=O)O)c(F)cn1 (stereo not shown) [Compound 26-8, 3-((2-(2,6-dimethyl-phenyl)-5-fluoropyridin-4-yl)methoxy)-5,5a,6,6a-tetrahydrocyclopropa [4,5]cyclopenta[1,2-c]pyridine-6-carboxylic acid] |  |  |  | 28 | 100 |  |
| Cc1cccc(C)c1-c1cccc(COc2cc3c(cn2)C2[C@@H](C3)[C@@H]2C(=O)O)c1C (stereo partly shown) [Compound 27-5, 4-(2,2′,6′-Trimethyl-biphenyl-3-ylmethoxy)-1,1a,6,6a-tetrahydro-3-aza-cyclopropa[a]indene-1-carboxylic acid] |  |  |  | 8.1 | 6.7 |  |
| Cc1c(COc2cc3c(cn2)C2C(C3)C2C(=O)O)cccc1-c1ccccc1C(F)(F)F (stereo not shown) [Compound 27-6, 3-((2-methyl-2′-(trifluoro-methyl)-[1,1′-biphenyl]-3-yl)methoxy)-5,5a,6,6a-tetrahydrocyclopropa[4,5]-cyclopenta[1,2-c]pyridine-6-carboxylic acid] |  |  |  | 30 | 85 |  |
| Cc1cc(O[C@H]2C[C@@](C)(C#N)C2)cc(C)c1-c1cccc(COc2cc3c(cn2)C2[C@@H](C3)[C@@H]2C(=O)O)c1 (stereo partly drawn) [Compound 29-7, (5aR,6S,6aR)-3-((4′-((1s,3s)-3-cyano-3-methylcyclobutoxy)-2′,6′-dimethyl-[1,1′-biphenyl]-3-yl)methoxy)-5,5a,6,6a-tetrahydrocyclopropa[4,5]cyclopenta[1,2-c]pyridine-6-carboxylic acid] |  |  |  | 54 | 21 |  |
| Cc1nc(N2CCOCC2)nc(C)c1-c1ccc(F)c(COc2cc3c(cn2)C2C(C3)C2C(=O)O)c1 (stereo not shown) [Compound 31-10, 3-((5-(4,6-dimethyl-2-morpholinopyrimidin-5-yl)-2-fluorobenzyl)oxy)-5,5a,6,6a-tetrahydrocyclopropa[4,5]cyclopenta[1,2-c]pyridine-6-carboxylic acid] |  |  |  | 86 | 45 |  |
| CCc1nc2ccc(F)c(F)c2n1-c1cccc(COc2cc3c(cn2)[C@H]2[C@@H](C3)[C@@H]2C(=O)O)c1C [Compound 32-9, (5aR,6S,6aS)-3-((3-(2-ethyl-6,7-difluoro-1H-benzo[d]imidazol-1-yl)-2-methylbenzyl)oxy)-5,5a,6,6a-tetrahydrocyclopropa[4,5]cyclopenta[1,2-c]pyridine-6-carboxylic acid] |  |  |  | 30 | 4.9 |  |
| Cc1cc(CCCC(C)(C)O)cc(C)c1-c1ccc(F)c(COc2ccc3c(c2)C[C@H]2[C@H](C(=O)O)[C@@H]32)c1 [Compound B-4, reference compound] | 66 (≈ 33.2 µg/mL) | 100 | 348 |  |  |  |

Further lines, with some results ahead:

| solubility (Solubility in PBS pH 7) [µM] | EC50 (hGPR40 [1]; [4]) [nM] | EC50 (hGPR40 [1]; [5]) [nM] | EC50 (hGPR40 [3]) [nM] | EC50 (hGPR40 [1]; [6]) [nM] | SMILES | Ki [2] [nM] |
| --- | --- | --- | --- | --- | --- | --- |
|  |  |  | 70 | 53 | CS(=O)(=O)CCCOc1ccc(-c2ccc(F)c(COc3cc4c(cn3)[C@H]3[C@@H](C4)[C@@H]3C(=O)O)n2)c(C(F)(F)F)c1 [Compound 26-9, (5aR,6S,6aS)-3-((3-fluoro-6-(4-(3-(methyl-sulfonyl)-propoxy)-2-(trifluoromethyl)-phenyl)pyridin-2-yl)methoxy)-5,5a,6,6a-tetrahydrocyclo-propa[4,5]cyclopenta [1,2-c]pyridine-6-carboxylic acid] |  |
|  |  |  | 90 | 300 | Cc1nc(N2CCN(S(C)(=O)=O)CC2)ccc1-c1ccc(F)c(COc2cc3c(cn2)[C@H]2[C@@H](C3)[C@@H]2C(=O)O)n1 [Compound 26-10, (5aR,6S,6aS)-3-((5-fluoro-2′-methyl-6′-(4-(methylsulfonyl)-piperazin-1-yl)-[2,3′-bipyridin]-6-yl)methoxy)-5,5a,6,6a-tetrahydrocyclo-propa[4,5]cyclopenta [1,2-c]pyridine-6-carboxylic acid] |  |
|  |  |  | 24 | 66 | Cc1cc(OCCCC(C)(C)C#N)cc(C)c1-c1cccc(COc2cc3c(cn2)C2[C@@H](C3)[C@@H]2C(=O)O)c1 (stereo partly drawn) [Compound 28-6, (5aR,6S,6aR)-3-((4′-((4-cyano-4-methylpentyl)oxy)-2′,6′-dimethyl-[1,1′-biphenyl]-3-yl)methoxy)-5,5a,6,6a-tetrahdrocyclopropa[4,5]cyclopenta[1,2-c]pyridine-6-carboxylic acid] |  |
|  |  |  | 45 | 300 | Cc1cc(OCCCS(C)(=O)=O)cc(C)c1-c1ccc(F)c(C(C)Oc2cc3c(cn2)[C@H]2[C@@H](C3)[C@@H]2C(=O)O)c1 (stereo partly drawn) [Compound 30-5, (5aR,6S,6aS)-3-(1-(4-fluoro-2′,6′-dimethyl-4′-(3-(methylsulfonyl)propoxy)-[1,1′-biphenyl]-3-yl)ethoxy)-5,5a,6,6a-tetrahydrocyclopropa[4,5]cyclopenta[1,2-c]pyridine-6-carboxylic acid] |  |
|  |  |  | 51 | 28 | Cc1nc(N2CC(CS(C)(=O)=O)C2)ccc1-c1ccc(F)c(COc2cc3c(cn2)[C@H]2[C@@H](C3)[C@@H]2C(=O)O)c1 [Compound 31-8] |  |
|  |  |  | 76 | 69 | Cc1nc(N2CCC(CS(C)(=O)=O)C2)ccc1-c1ccc(F)c(COc2cc3c(cn2)C2C(C3)C2C(=O)O)c1 (stereo not shown) [Compound 31-9, 3-((2-fluoro-5-(2-methyl-6-(3-((methylsulfonyl)-methyl)pyrrolidin-1-yl)pyridin-3-yl)benzyl)oxy)-5,5a,6,6a-tetrahydrocyclopropa[4,5]cyclopenta[1,2-c]pyridine-6-carboxylic acid] |  |
|  |  |  | 45 | 180 | Cc1nc(N2CCC3(C=Cc4ccccc43)CC2)nc(C)c1-c1ccc(F)c(COc2cc3c(cn2)C2C(C3)C2C(=O)O)c1 (stereo not shown) [Compound 31-11, 3-((5-(4,6-dimethyl-2-(spiro[indene-1,4′-piperidin]-1′-yl)pyrimidin-5-yl)-2-fluorobenzyl)oxy)-5,5a,6,6a-tetrahydrocyclopropa[4,5]cyclopenta[1,2-c]pyridine-6-carboxylic acid] |  |
|  |  |  | 44 | 51 | Cc1nc(N2CCC(NS(C)(=O)=O)C2)ccc1-c1ccc(F)c(COc2cc3c(cn2)C2C(C3)C2C(=O)O)c1 (stereo not shown) [Compound 31-12, 3-((2-fluoro-5-(2-methyl-6-(3-(methylsulfonamido)-pyrrolidin-1-yl)pyridin-3-yl)benzyl)oxy)-5,5a,6,6a-tetrahydrocyclopropa[4,5]cyclopenta[1,2-c]pyridine-6-carboxylic acid] |  |
|  |  |  | 69 | 32 | Cc1nc(N2CCN(S(C)(=O)=O)CC2)ccc1-c1ccc(F)c(COc2cc3c(cn2)[C@H]2[C@@H](C3)[C@@H]2C(=O)O)c1 [Compound 31-13, (5aR,6S,6aS)-3-((2-fluoro-5-(2-methyl-6-(4-(methylsulfonyl)piperazin-1-yl)pyridin-3-yl)benzyl)oxy)-5,5a,6,6a-tetrahydrocyclopropa[4,5]cyclopenta[1,2-c]pyridine-6-carboxylic acid] |  |
